Experiments:
Experiment in all cases: NADPH formation at […] nm, plate reader, Michaelis-Menten nonlinear fit
Type in all cases: biochemical
Conditions in all cases: 200 µM NADP+, 100 mM beta-mercaptoethanol, Tris/HCl pH 7.6, 30 °C; WT values said to accord with the authors' earlier paper [22]
[1] = target: T1, 10-formyl-THFDH (Amel_10-formyl-THFDH) (Apis mellifera, UniProt A0A7M7GVR6)
T1 construct: gene LOC551401; full-length ORF, N-terminal 6xHis tag (MHHHHHHAQLKVA...) not reported cleaved, baculovirus expression in Hi5 insect cells, Ni-NTA purified

[2] = target: T1, 10-formyl-THFDH (Amel_10-formyl-THFDH); remark: listed apart in the source
[3] = target: T1, 10-formyl-THFDH (Amel_10-formyl-THFDH); remark: listed apart in the source
[4] = target: T1, 10-formyl-THFDH (Amel_10-formyl-THFDH); remark: listed apart in the source

T1 sequence (A0A7M7GVR6 entry or part of it): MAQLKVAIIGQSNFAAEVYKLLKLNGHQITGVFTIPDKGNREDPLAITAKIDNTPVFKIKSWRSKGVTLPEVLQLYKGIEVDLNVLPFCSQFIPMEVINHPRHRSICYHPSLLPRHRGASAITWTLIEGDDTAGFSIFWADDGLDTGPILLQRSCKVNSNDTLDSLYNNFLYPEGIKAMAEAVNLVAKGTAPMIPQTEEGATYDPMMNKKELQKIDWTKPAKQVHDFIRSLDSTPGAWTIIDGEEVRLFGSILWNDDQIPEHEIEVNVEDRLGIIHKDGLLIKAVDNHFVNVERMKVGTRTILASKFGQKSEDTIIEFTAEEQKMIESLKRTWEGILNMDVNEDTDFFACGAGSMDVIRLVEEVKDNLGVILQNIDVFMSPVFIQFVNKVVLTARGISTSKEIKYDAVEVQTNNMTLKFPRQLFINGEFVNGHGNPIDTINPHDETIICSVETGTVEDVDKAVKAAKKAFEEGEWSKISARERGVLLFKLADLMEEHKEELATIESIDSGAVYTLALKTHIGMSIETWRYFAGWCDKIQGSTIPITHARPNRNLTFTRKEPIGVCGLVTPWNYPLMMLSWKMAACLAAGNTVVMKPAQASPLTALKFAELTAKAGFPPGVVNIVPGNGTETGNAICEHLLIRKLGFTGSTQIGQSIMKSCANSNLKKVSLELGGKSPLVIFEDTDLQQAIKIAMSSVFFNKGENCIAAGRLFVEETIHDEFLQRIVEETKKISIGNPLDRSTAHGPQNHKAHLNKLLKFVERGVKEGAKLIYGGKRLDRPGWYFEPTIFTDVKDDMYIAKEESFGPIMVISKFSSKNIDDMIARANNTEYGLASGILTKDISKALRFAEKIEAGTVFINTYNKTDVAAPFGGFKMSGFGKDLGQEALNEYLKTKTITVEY

- Km [3]: 9.6 µM
Compound: Nc1nc2c(c(=O)[nH]1)NC(CN(C=O)c1ccc(C(=O)N[C@@H](CCC(=O)O)C(=O)O)cc1)CN2 (stereo partly shown) [10-formyl-THF]
- NADPH formation at 340 nm, plate reader, Michaelis-Menten nonlinear fit [1]: The mutations lost their activity almost entirely
- NADPH formation at 340 nm, plate reader, Michaelis-Menten nonlinear fit [2]: The mutations lost their activity almost entirely
- NADPH formation at 340 nm, plate reader, Michaelis-Menten nonlinear fit [4]: The mutations lost their activity almost entirely

Source: PMC9820478, “The Active Site of the Enzyme 10-Formyl-THFDH in the Honey Bee Apis mellifera—A Key Player in Formic Acid Detoxification” (International Journal of Molecular Sciences, 2022)
